How the values were obtained:
[1] = GI S9 stability (Ex. Z), rat intestinal S9; format: in vitro ADME; conditions: pooled intestinal S9 fractions; rat intestinal S9, 1.0 mg/mL protein, 2 μM substrate, pH 7.4; read-out: GIS9 Rat T½ (per Ex. Z)
Procedure, shortened: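 Pooled intestinal S9 at 1.0 mg/mL protein in PBS, pH 7.4, with substrate at 2 μM final, sampled at 0–120 min and quenched in methanol/acetonitrile containing labetalol. Remaining parent quantified by LC-MS peak area ratio. Half-life from first-order exponential decline fit.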

[2] = GI S9 stability (Ex. Z), dog intestinal S9; format: in vitro ADME; conditions: pooled intestinal S9 fractions; dog intestinal S9, 1.0 mg/mL protein, 2 μM substrate, pH 7.4; read-out: GIS9 DOG T½ (per Ex. Z)
Description: (§1) Example Z: GI S9 stability data:
(§2) Stock solutions of test compounds in dimethyl sulfoxide (DMSO) having a final concentration of 10 mM were prepared and used in all experiments. Sekisui XenoTech (Kansas City, KS) provided pooled intestinal S9 fractions. All other chemicals were purchased from Sigma-Aldrich (St. Louis, MO) or VWR (West Chester, PA). Internal Standard/Quench (IS/Q) used to stop reactions was 100 nM labetalol in (by volume) methanol (10%) and acetonitrile (90%).
(§3) Stability in Intestinal S9 Fractions: Duplicate aliquots of test compound or positive control substrate were added to S9 stock diluted with phosphate buffered saline (137 mM NaCl, 2.7 mM KCl, 10 mM phosphate buffer), pH 7.4, to obtain a protein concentration of 1.0 mg/mL. The metabolic reactions were initiated by the addition of the substrates to the S9 reaction mixture to a final concentration of 2 μM. At 0, 10, 20, 30, 60 and 120 min, 25 μL aliquots of the reaction mixture were transferred to plates containing 225 μl of IS/Q solution. After quenching, the plates were centrifuged at 3000×g for 30 minutes. 150 μL aliquots of each supernatant were dried down then reconstituted with 300 μL water. Aliquots (10 μL) of the prepared samples were analyzed on a Thermo Q-Exactive mass spectrometer as described below.
(§4) Liquid Chromatography—Mass Spectrometry: Quantification of test compounds and control substrate was performed by analyte/internal standard peak area ratio (PAR) values measured on a Thermo Q-Exactive mass spectrometer coupled to a Dionex UltiMate 3000 HPLC with a Leap Technologies HTC PAL autosampler. The column used for analysis was a Waters Acquity BEH C18 (1.7 μm particle size, 2.1×50 mm). Mobile phase A consisted of 0.1% (v/v) formic acid in water. Mobile phase B consisted of 0.1% (v/v) formic acid in acetonitrile. Elution of analytes was achieved by a series of linear gradients varying the proportions of A and B. The mass spectrometer was calibrated on a weekly basis and mass tolerance of 5 ppm was used.
(§5) Metabolic stabilities in S9 fractions were determined by measuring the rates of disappearance of test compound and positive control substrate.
(§6) Data (% of substrate remaining) were plotted on a semi-log scale and fitted using an exponential decline model:
(§7) Where Ct—% of substrate remaining at time=t; C0—% of substrate remaining at time=0; t—time; T½—half-life The Half-life (T½) is determined by the following equation: […]
(§8) Assuming a first-order reaction, the slope (k) is extrapolated from the aforementioned plotted data.

[3] = GI S9 stability (Ex. Z), human intestinal S9; format: in vitro ADME; conditions: pooled intestinal S9 fractions; human intestinal S9, 1.0 mg/mL protein, 2 μM substrate, pH 7.4; read-out: GIS9 Human T½ (per Ex. Z)
Description: as §1, §2, §3, §4, §5, §6, §7, §8

[4] = test system: Respiratory syncytial virus recombinant with luciferase (RSV-Luc5) in NHBE cells; experiment: NHBE RSV-Luc5 384-well Assay (RSV FLUC NHBE 384 V2, Ex. W); format: cell-based; conditions: human respiratory syncytial virus, 72 h, read-out: EC50 RSV FLUC NHBE 384 V2 (per Ex. W)
Procedure, shortened: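 NHBE cells (passage 2) seeded at 5,000 cells/well onto pre-spotted compounds, 10-point 1:3 dilutions, then infected with RSV-Luc5 at MOI 1. After 3 days at 37 °C, luciferase luminescence was read with One-Glo. Data normalized to remdesivir (0%) and DMSO (100% replication); EC50 from non-linear regression.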

Row | Compound | half-life at 2 μM [1] | half-life at 2 μM [2] | half-life at 2 μM [3] | EC50 [4]
1 | N#C[C@]1(COC(=O)CC2CCC2)O[C@@H](c2ccc3c(N)ncnn23)[C@H](O)[C@@H]1O [Compound 16, ((2R,3S,4R,5S)-5-(4-aminopyrrolo[2,1-f][1,2,4]triazin-7-yl)-2-cyano-3,4-dihydroxytetrahydrofuran-2-yl)methyl 2-cyclobutylacetate] | 4 min | 89 min | 14 min | 8.36 µM
2 | CC1(C)CC(C(=O)OC[C@@]2(C#N)O[C@@H](c3ccc4c(N)ncnn34)[C@H](O)[C@@H]2O)C1 [Compound 17, ((2R,3S,4R,5S)-5-(4-aminopyrrolo[2,1-f][1,2,4]triazin-7-yl)-2-cyano-3,4-dihydroxytetrahydrofuran-2-yl)methyl 3,3-dimethylcyclobutane-1-carboxylate] | 3 min | 48 min | 13 min | 8.7 µM
3 | N#C[C@]1(COC(=O)C2CCCC2)O[C@@H](c2ccc3c(N)ncnn23)[C@H](O)[C@@H]1O [Compound 18, ((2R,3S,4R,5S)-5-(4-aminopyrrolo[2,1-f][1,2,4]triazin-7-yl)-2-cyano-3,4-dihydroxytetrahydrofuran-2-yl)methyl cyclopentanecarboxylate] | 3 min | 26 min | 8 min | 8.71 µM
4 | N#C[C@]1(COC(=O)C2CCCCC2)O[C@@H](c2ccc3c(N)ncnn23)[C@H](O)[C@@H]1O [Compound 19, ((2R,3S,4R,5S)-5-(4-aminopyrrolo[2,1-f][1,2,4]triazin-7-yl)-2-cyano-3,4-dihydroxytetrahydrofuran-2-yl)methyl cyclohexanecarboxylate] | 4 min | 48 min | 13 min | 10.9 µM
5 | CC(C)C(=O)OC[C@@]1(C#N)O[C@@H](c2ccc3c(N)ncnn23)[C@H](OC(=O)C(C)C)[C@@H]1OC(=O)C(C)C [Compound 20, (2R,3S,4S,5S)-5-(4-aminopyrrolo[2,1-f][1,2,4]triazin-7-yl)-2-cyano-2-((isobutyryloxy)methyl)tetrahydrofuran-3,4-diyl bis(2-methylpropanoate)] | 2 min | 3 min | 3 min | 10.4 µM

From patent publication US20240199676A1, “ANTIVIRAL COMPOUNDS AND METHODS OF MAKING AND USING THE SAME” (Gilead Sciences, Inc., priority 2022, published 2024)
